Measured values published in patent US9550742B2, “11-OXO-10,11-dihydrodibenzo[B,F][1,4]thiazepine S-oxide derivatives and their use as dopamine D2 receptor antagonists” (The United States of America, as Represented by the …, priority 2013, dated 2017).

Biological target: T1, D2 DAR (Homo sapiens, UniProt P14416)
T1 construct: expressed in transfected cells; host or cells: HEK293 T-REx, Tet-inducible, with chimeric G-protein Gqi5
Assay: D2 Ca^2+ screen assay (calcium accumulation, HEK293 T-REx with Gqi5)
Format: cell-based
Settings: dopamine D2 calcium release assay of Example 1; read-out: Ca^2+ AC50
Method: The resting concentration of calcium ions (Ca^2+) in the cells' cytoplasm is normally maintained in the range of 10-100 nM. To maintain this low concentration, Ca^2+ is actively pumped from the cytosol to the extracellular space and into the endoplasmic reticulum (ER), and sometimes into the mitochondria. Signaling occurs when the cell is stimulated to release Ca^2+ from intracellular stores. The most common signaling pathway that increases cytoplasmic calcium concentration is the phospholipase C (PLC) pathway. […] IP3 diffuses to the ER, binds to its receptor (IP3 receptor), which is a Ca^2+ channel and, thus, releases Ca^2+ from the ER to the cytosol. To measure this cytosolic Ca^2+ accumulation, we used the Screen Quest™ Fluo-8 Calcium Assay Kit (AAT Bioquest, Sunnyvale, Calif.). Acetoxymethyl (AM) esters bound to Fluo-8™ dye are non-polar molecules that easily cross live cell membranes transporting the dye inside the cell, and are then rapidly hydrolyzed by cellular esterases inside live cells. As Fluo-8™ is freed from AM esters, it binds to Ca^2+ and emits a fluorescent signal at 514 nm that escalates with increasing cytosolic Ca^2±. To measure this calcium flux signal, we used the Functional Drug Screening System (FDSS) (Hamamatsu, Japan), a high throughput screening device that allows optical detection of signal transmissions within living cells in a time-resolving fashion. […] Quest Fluo-8™ calcium reagent was freshly prepared prior to adding to the cells (lyophilized Fluo-8™ dye provided with the kit was re-suspended in 200 μL DMSO as a 500× stock and stored at −20° C.). 2 μL/well of Quest Fluo-8™ calcium dye diluted in HBSS +10 mM HEPES buffer (for every 10 mL buffer, 1 mL of 10× quencher provided in the kit and 20 μL of 500×DMSO stock dye were added) was added to cells with a Multi-Drop Combi (ThermoScientific) and incubated for 45-90 min in the dark at ambient temperature. Then, the plates were introduced into the FDSS where they were pinned with 23 nL of test compound or dopamine controls and were read by FDSS in non-stimulated mode for 180 sec for detection of agonists. […]

T1 sequence (P14416 whole entry): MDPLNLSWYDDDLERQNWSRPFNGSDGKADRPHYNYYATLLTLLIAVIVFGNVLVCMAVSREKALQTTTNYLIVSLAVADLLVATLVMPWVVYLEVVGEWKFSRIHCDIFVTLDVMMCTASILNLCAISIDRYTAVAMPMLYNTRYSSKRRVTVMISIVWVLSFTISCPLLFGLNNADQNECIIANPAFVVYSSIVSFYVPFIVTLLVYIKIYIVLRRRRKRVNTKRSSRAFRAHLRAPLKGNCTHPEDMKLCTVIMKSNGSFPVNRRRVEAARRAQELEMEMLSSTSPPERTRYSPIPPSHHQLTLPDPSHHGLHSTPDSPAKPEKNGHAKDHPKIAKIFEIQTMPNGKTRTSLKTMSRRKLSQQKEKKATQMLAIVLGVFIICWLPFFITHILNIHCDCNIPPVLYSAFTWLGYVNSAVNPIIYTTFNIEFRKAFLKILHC

Question: Which AC50 does the source give for CN1C(=O)c2ccccc2[S+]([O-])c2ccc(C(=O)NCc3ccc(F)cc3)cc21 (stereo not drawn) [Compound 26, N-(4-Fluorobenzyl)-10-methyl-11-oxo-10,11-dihydrodibenzo[b,f][1,4]thiazepine-8-carboxamide 5-oxide] here?
Answer: < 1000 nM

Question: CCN1C(=O)c2ccccc2[S+]([O-])c2ccc(C(=O)NC(C)c3ccccc3)cc21 (stereo not drawn) [Compound 5, 10-Ethyl-11-oxo-N-(1-phenylethyl)-10,11-dihydrodibenzo[b,f][1,4]thiazepine-8-carboxamide 5-oxide] was tested. Which AC50 did it give?
Answer: < 1000 nM

Question: With CCN1C(=O)c2ccccc2[S+]([O-])c2ccc(C(=O)NCc3ccc(C)cc3)cc21 (stereo not drawn) [Compound 8, 10-Ethyl-N-(4-methylbenzyl)-11-oxo-10,11-dihydrodibenzo[b,f][1,4]thiazepine-8-carboxamide 5-oxide] as the molecule, how does the AC50 read?
Answer: < 1000 nM

Question: With COc1ccc(CNC(=O)c2ccc3c(c2)N(C)C(=O)c2ccccc2[S+]3[O-])cc1 (stereo not drawn) [Compound 20, N-(4-Methoxybenzyl)-10-methyl-11-oxo-10,11-dihydrodibenzo[b,f][1,4]thiazepine-8-carboxamide 5-oxide] as the molecule, how does the AC50 read?
Answer: < 1000 nM

Question: With CN1C(=O)c2ccccc2[S+]([O-])c2ccc(C(=O)NCc3ccc(Cl)cc3)cc21 (stereo not drawn) [Compound 27, N-(4-Chlorobenzyl)-10-methyl-11-oxo-10,11-dihydrodibenzo[b,f][1,4]thiazepine-8-carboxamide 5-oxide] as the molecule, how does the AC50 read?
Answer: < 1000 nM

Question: How did the AC50 turn out when CCN1C(=O)c2ccccc2[S+]([O-])c2ccc(C(=O)Nc3ccc(OC)cc3)cc21 (stereo not drawn) [Compound 17, 10-Ethyl-N-(4-methoxyphenyl)-11-oxo-10,11-dihydrodibenzo[b,f][1,4]thiazepine-8-carboxamide 5-oxide] was run?
Answer: < 1000 nM

Question: For CN1C(=O)c2ccccc2[S+]([O-])c2ccc(C(=O)NCc3cccnc3)cc21 (stereo not drawn) [Compound 31, 10-Methyl-11-oxo-N-(pyridin-3-ylmethyl)-10,11-dihydrodibenzo[b,f][1,4]thiazepine-8-carboxamide 5-oxide], which AC50 is on record?
Answer: < 1000 nM

Question: For CCN1C(=O)c2ccccc2Sc2ccc(C(=O)NCc3ccc(OC)cc3)cc21 [Compound 36, 10-Ethyl-N-(4-methoxybenzyl)-11-oxo-10,11-dihydrodibenzo[b,f][1,4]thiazepine-8-carboxamide], which AC50 is on record?
Answer: < 1000 nM

Question: Which AC50 does the source give for CCN1C(=O)c2ccccc2[S+]([O-])c2ccc(C(=O)NCc3ccc(C#N)cc3)cc21 (stereo not drawn) [Compound 12, N-(4-Cyanobenzyl)-10-ethyl-11-oxo-10,11-dihydrodibenzo[b,f][1,4]thiazepine-8-carboxamide 5-oxide] here?
Answer: < 1000 nM

Question: With CCN1C(=O)c2ccccc2[S+]([O-])c2ccc(C(=O)NCc3ccc(C(C)(C)C)cc3)cc21 (stereo not drawn) [Compound 7, N-(4-tert-Butylbenzyl)-10-ethyl-11-oxo-10,11-dihydrodibenzo[b,f][1,4]thiazepine-8-carboxamide 5-oxide] as the molecule, how does the AC50 read?
Answer: < 1000 nM

Question: Which AC50 does the source give for CN1C(=O)c2ccccc2[S+]([O-])c2ccc(C(=O)NCc3ccccc3)cc21 (stereo not drawn) [Compound 25, N-Benzyl-10-methyl-11-oxo-10,11-dihydrodibenzo[b,f][1,4]thiazepine-8-carboxamide 5-oxide] here?
Answer: < 1000 nM

Question: COc1ccc(NC(=O)c2ccc3c(c2)N(C)C(=O)c2ccccc2[S+]3[O-])cc1 (stereo not drawn) [Compound 24, N-(4-Methoxyphenyl)-10-methyl-11-oxo-10,11-dihydrodibenzo[b,f][1,4]thiazepine-8-carboxamide 5-oxide] was tested. Which AC50 did it give?
Answer: < 1000 nM

Question: How did the AC50 turn out when CCN1C(=O)c2ccccc2[S+]([O-])c2ccc(C(=O)NCc3ccccc3)cc21 (stereo not drawn) [Compound 4, N-Benzyl-10-ethyl-11-oxo-10,11-dihydrodibenzo[b,f][1,4]thiazepine-8-carboxamide 5-oxide] was run?
Answer: < 1000 nM

Question: With CN1C(=O)c2ccccc2[S+]([O-])c2ccc(C(=O)NCc3cccc(Cl)c3)cc21 (stereo not drawn) [Compound 28, N-(3-Chlorobenzyl)-10-methyl-11-oxo-10,11-dihydrodibenzo[b,f][1,4]thiazepine-8-carboxamide 5-oxide] as the molecule, how does the AC50 read?
Answer: < 1000 nM

Question: Which AC50 does the source give for CCN1C(=O)c2ccccc2[S+]([O-])c2ccc(NC(=O)Cc3ccc(F)cc3)cc21 (stereo not drawn) [Compound 46, N-(10-Ethyl-11-oxo-10,11-dihydrodibenzo[b,f][1,4]thiazepin-8-yl)-2-(4-fluorophenyl)acetamide 5-oxide] here?
Answer: < 1000 nM

Question: How did the AC50 turn out when CCN1C(=O)c2ccccc2[S+]([O-])c2ccc(C(=O)NCc3ccc(Cl)cc3)cc21 (stereo not drawn) [Compound 11] was run?
Answer: < 1000 nM

Question: For CN1C(=O)c2ccccc2[S+]([O-])c2ccc(C(=O)NCCN3CCCC3)cc21 (stereo not drawn) [Compound 33, 10-Methyl-11-oxo-N-(2-(pyrrolidin-1-yl)ethyl)-10,11-dihydrodibenzo[b,f][1,4]thiazepine-8-carboxamide 5-oxide], which AC50 is on record?
Answer: < 1000 nM

Question: With CCN1C(=O)c2ccccc2[S+]([O-])c2ccc(C(=O)Nc3ccccc3)cc21 (stereo not drawn) [Compound 16, 10-Ethyl-11-oxo-N-phenyl-10,11-dihydrodibenzo[b,f][1,4]thiazepine-8-carboxamide 5-oxide] as the molecule, how does the AC50 read?
Answer: < 1000 nM

Question: Which AC50 does the source give for CCN1C(=O)c2ccccc2[S+]([O-])c2ccc(C(=O)NCCc3ccc(OC)cc3)cc21 (stereo not drawn) [Compound 18, 10-Ethyl-N-(4-methoxyphenethyl)-11-oxo-10,11-dihydrodibenzo[b,f][1,4]thiazepine-8-carboxamide 5-oxide] here?
Answer: < 1000 nM

Question: How did the AC50 turn out when CN1C(=O)c2ccccc2[S+]([O-])c2ccc(C(=O)NCCN3CCCCC3)cc21 (stereo not drawn) [Compound 34, 10-Methyl-11-oxo-N-(2-(piperidin-1-yl)ethyl)-10,11-dihydrodibenzo[b,f][1,4]thiazepine-8-carboxamide 5-oxide] was run?
Answer: < 1000 nM

Question: Which AC50 does the source give for CCN1C(=O)c2ccccc2[S+]([O-])c2ccc(C(=O)NCc3ccc(S(C)(=O)=O)cc3)cc21 (stereo not drawn) [Compound 13, 10-Ethyl-N-(4-(methylsulfonyl)benzyl)-11-oxo-10,11-dihydrodibenzo[b,f][1,4]thiazepine-8-carboxamide 5-oxide] here?
Answer: < 1000 nM

Question: How did the AC50 turn out when CCN1C(=O)c2ccccc2[S+]([O-])c2ccc(NC(=O)Cc3ccc(OC)cc3)cc21 (stereo not drawn) [Compound 45, N-(10-Ethyl-11-oxo-10,11-dihydrodibenzo[b,f][1,4]thiazepin-8-yl)-2-(4-methoxyphenyl)acetamide 5-oxide] was run?
Answer: < 1000 nM

Question: How did the AC50 turn out when CCN1C(=O)c2ccccc2[S+]([O-])c2ccc(C(=O)NCc3ccc(F)cc3)cc21 (stereo not drawn) [Compound 10, 10-Ethyl-N-(4-fluorobenzyl)-11-oxo-10,11-dihydrodibenzo[b,f][1,4]thiazepine-8-carboxamide 5-oxide] was run?
Answer: < 1000 nM

Question: CCN1C(=O)c2ccccc2[S+]([O-])c2ccc(C(=O)NCc3cccc(OC)c3)cc21 (stereo not drawn) [Compound 2, 10-Ethyl-N-(3-methoxybenzyl)-11-oxo-10,11-dihydrodibenzo[b,f][1,4]thiazepine-8-carboxamide 5-oxide] was tested. Which AC50 did it give?
Answer: < 1000 nM

Question: For CCN1C(=O)c2ccccc2[S+]([O-])c2ccc(C(=O)NCc3ccc(C(F)(F)F)cc3)cc21 (stereo not drawn) [Compound 9, 10-Ethyl-11-oxo-N-(4-(trifluoromethyl)benzyl)-10,11-dihydrodibenzo[b,f][1,4]thiazepine-8-carboxamide 5-oxide], which AC50 is on record?
Answer: < 1000 nM

Question: How did the AC50 turn out when CCCN1C(=O)c2ccccc2[S+]([O-])c2ccc(C(=O)NCc3ccc(OC)cc3)cc21 (stereo not drawn) [Compound 21, N-(4-Methoxybenzyl)-11-oxo-10-propyl-10,11-dihydrodibenzo[b,f][1,4]thiazepine-8-carboxamide 5-oxide] was run?
Answer: < 1000 nM

Question: Which AC50 does the source give for CCN1C(=O)c2ccccc2[S+]([O-])c2ccc(C(=O)NCc3ccc4c(c3)OCO4)cc21 (stereo not drawn) [Compound 15, N-(benzo[d][1,3]dioxol-5-ylmethyl)-10-ethyl-11-oxo-10,11dihydrodibenzo[b,f][1,4]thiazepine-8-carboxamide 5-oxide] here?
Answer: < 1000 nM

Question: CN(C)CCCNC(=O)c1ccc2c(c1)N(C)C(=O)c1ccccc1[S+]2[O-] (stereo not drawn) [Compound 35, N-(3-(Dimethylamino)propyl)-10-methyl-11-oxo-10,11-dihydrodibenzo[b,f][1,4]thiazepine-8-carb oxamide 5-oxide] was tested. Which AC50 did it give?
Answer: < 1000 nM

Question: With CN1C(=O)c2ccccc2[S+]([O-])c2ccc(C(=O)NCc3ccc(Br)cc3)cc21 (stereo not drawn) [Compound 29, N-(4-Bromobenzyl)-10-methyl-11-oxo-10,11-dihydrodibenzo[b,f][1,4]thiazepine-8-carboxamide 5-oxide] as the molecule, how does the AC50 read?
Answer: < 1000 nM

Question: Which AC50 does the source give for CCN1C(=O)c2ccccc2[S+]([O-])c2ccc(C(=O)NCc3ccc(SC)cc3)cc21 (stereo not drawn) [Compound 6, 10-Ethyl-N-(4-(methylthio)benzyl)-11-oxo-10,11-dihydrodibenzo[b,f][1,4]thiazepine-8-carboxamide 5-oxide] here?
Answer: < 1000 nM
